The record followed here is PubChem BioAssay (NCI).

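Assay format: 96-well plates, 48-hour exposure. At the TGI there is no net growth.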

Among the test systems are KM20L2 colon; HL-60(TB) leukemia; NCI-H23 lung; HCC-2998 colon; SK-OV-3 ovarian; XF 498 CNS; IGROV1 ovarian; DMS 273 small cell lung; M19-MEL melanoma; DLD-1 colon; HS 578T breast; T-47D breast; MDA-MB-231 breast.
What all share (assay): NCI tumour cell line growth inhibition, 48 h

As for `O=C1NC2OC(C(O)CO)C(O)C2O1` (stereo unspecified), the TGI in the test on KM20L2 colon, in the test on HL-60(TB) leukemia, with NCI-H23 lung, in the test on HCC-2998 colon, in the test on SK-OV-3 ovarian and in the test with XF 498 CNS was over 100 µM throughout. The TGI with IGROV1 ovarian, in the test with DMS 273 small cell lung and in the test with M19-MEL melanoma was over 100 µM in each case.
On to `O=C1CSC(/C(=N/Nc2ccccc2)c2nc3ccccc3[nH]2)=N1`, for which the TGI in the test with KM20L2 colon is over 100 µM; in the test on DLD-1 colon, over 100 µM; with HL-60(TB) leukemia, over 100 µM; with NCI-H23 lung, over 100 µM; with HCC-2998 colon, over 100 µM; in the test on SK-OV-3 ovarian, 73.5 µM. Moreover, the TGI is 73.4 µM with XF 498 CNS, over 100 µM with IGROV1 ovarian, 47.3 µM with DMS 273 small cell lung and over 100 µM with M19-MEL melanoma.
With `CSc1sc2ccccc2[s+]1`, the TGI in the test on KM20L2 colon, in the test with DLD-1 colon, in the test on HL-60(TB) leukemia, with HCC-2998 colon, in the test with SK-OV-3 ovarian and in the test on IGROV1 ovarian was over 100 µM each time. The TGI in the test with DMS 273 small cell lung and in the test on M19-MEL melanoma was over 100 µM each time.
With `Nc1ccn(C2OC(CO)C(O)C2O)c(=O)c1` (stereo unspecified), the TGI with KM20L2 colon, with DLD-1 colon, with HL-60(TB) leukemia, in the test with NCI-H23 lung, in the test on HCC-2998 colon and in the test with SK-OV-3 ovarian was over 625 µM in each case. In addition, the TGI in the test on XF 498 CNS was under 0.0625 µM; in the test on IGROV1 ovarian, over 625 µM; with DMS 273 small cell lung, over 625 µM.
In the case of `OCc1ccc(C2CC(c3ccco3)=NN2c2ccccc2)o1` (stereo unspecified), the TGI in the test with KM20L2 colon, with HL-60(TB) leukemia, with NCI-H23 lung, with XF 498 CNS, in the test with IGROV1 ovarian and with DMS 273 small cell lung was over 100 µM in each case. The same compound showed a TGI with M19-MEL melanoma of over 100 µM.
Consider `COc1cc2c3c(c1OC)C1(C=CC(=O)C=C1)C[C@H]3N(C)CC2`, for which the TGI with KM20L2 colon, with DLD-1 colon, in the test on NCI-H23 lung, with HCC-2998 colon, in the test with SK-OV-3 ovarian and in the test on XF 498 CNS was over 100 µM each time. Besides, the TGI with IGROV1 ovarian, in the test with DMS 273 small cell lung and with M19-MEL melanoma was over 100 µM in each case.
On to `Cc1ccc(S(=O)(=O)C(C#N)c2nc3ccccc3nc2-n2ccnc2)cc1` (stereo unspecified), for which the TGI with DLD-1 colon, in the test with HL-60(TB) leukemia, in the test on NCI-H23 lung, in the test with HCC-2998 colon, in the test on SK-OV-3 ovarian and with XF 498 CNS was over 100 µM throughout. Also, the TGI in the test on IGROV1 ovarian, in the test on DMS 273 small cell lung and in the test on M19-MEL melanoma was over 100 µM in each case.
For the compound `CC(=O)[C@@]1(O)CC[C@H]2[C@@H]3C[C@H](C)C4=CC(=O)C=C[C@]4(C)[C@@]3(F)[C@@H](O)C[C@@]21C`, the TGI in the test with KM20L2 colon, in the test on DLD-1 colon, in the test on HL-60(TB) leukemia, with HS 578T breast, in the test on NCI-H23 lung and in the test with T-47D breast was over 100 µM each time. For the same compound, the TGI with MDA-MB-231 breast, in the test with HCC-2998 colon, with SK-OV-3 ovarian, with XF 498 CNS, in the test with IGROV1 ovarian and in the test with DMS 273 small cell lung was over 100 µM each time. The compound also had a TGI in the test with M19-MEL melanoma of over 100 µM.
Turning to `CCOC(=O)c1ccc(C)c(N=NN(C)C)c1`, the TGI in the test with KM20L2 colon, with DLD-1 colon, in the test with HL-60(TB) leukemia, with NCI-H23 lung, with HCC-2998 colon and in the test on SK-OV-3 ovarian was over 100 µM throughout. Moreover, the TGI in the test with XF 498 CNS, with IGROV1 ovarian, in the test with DMS 273 small cell lung and in the test with M19-MEL melanoma was over 100 µM each time.
On to `COc1ccc(C2COc3cc(O)c(O)cc3C2)cc1` (stereo unspecified), for which the TGI in the test with KM20L2 colon stood at 221 µM; with DLD-1 colon, 25.3 µM; in the test on HL-60(TB) leukemia it was 5.41 µM; with NCI-H23 lung it was 159 µM; with HCC-2998 colon it was 184 µM; in the test with SK-OV-3 ovarian, 163 µM. The figures for the TGI in the test with IGROV1 ovarian, in the test with DMS 273 small cell lung and in the test with M19-MEL melanoma were 148 µM, 160 µM and 86.6 µM, respectively.
With `O=c1c(C(c2ccc(Cl)cc2)c2c(O)c3ccccc3n(-c3ccccc3)c2=O)c(O)c2ccccc2n1-c1ccccc1`, the TGI with KM20L2 colon is over 100 µM; in the test with DLD-1 colon, over 100 µM; in the test with NCI-H23 lung it was over 100 µM; in the test on HCC-2998 colon, over 100 µM; with SK-OV-3 ovarian, over 100 µM; with XF 498 CNS, 69.4 µM. The TGI in the test on IGROV1 ovarian, in the test with DMS 273 small cell lung and in the test with M19-MEL melanoma was over 100 µM each time.
Regarding `O=C(CN(c1ccccc1)c1ccccc1)n1nnc2ccccc21`, the TGI in the test on KM20L2 colon, in the test on DLD-1 colon, in the test on HL-60(TB) leukemia, in the test on NCI-H23 lung, with HCC-2998 colon and in the test with SK-OV-3 ovarian was over 100 µM each time. Also, the figures for the TGI in the test on IGROV1 ovarian, in the test on DMS 273 small cell lung and in the test on M19-MEL melanoma were over 100 µM, over 100 µM and 48.6 µM, respectively.
